Laboratory results: patent US9622469B2, “Crosslink breakers for preservation of biological substances” (priority 2013, dated 2017)
Marks after values point to notes of the source that are not given here.

Key:
[1] = Cleavage of PPD (3) to benzoic acid by NHC precursors, Method B (MeCN co-solvent); format: biochemical; settings: for Yield (%) of benzoic acid from cleavage of 3: MeCN/pH 7.4 phosphate buffer, 37° C., LCMS peak integration with respect to 3, background 5%; for Benzoic acid formation from 3 (in words): Method B screen of NHC precursors
Method: (§1) Dicarbonyl cleavage reactions were performed using either the method described in Vasan et al., An agent cleaving glucose-derived protein crosslinks in vitro and in vivo, Nature (1996) Vol. 382, pp. 275-278 (Method A) or a modified method with MeCN as a co-solvent (Method B).
(§2) 60 mM solution of dicarbonyl substrate (45 μmol) in MeCN (0.75 ml) was added to 20 mM solution of NHC (15 μmol) in 0.15 M pH 7.4 sodium phosphate buffer (0.75 ml) and kept stirred at 37° C. At stated times, 75 μl aliquots were taken, diluted with 50% MeCN/H2O (425 μl) and analyzed by LCMS with 2,4-dihydroxyquinoline (248 μM) as an internal standard. The cleavage products were quantified by peak integration against the calibration curves.
Thus, our first goal in these studies was to assess the ability of various NHC precursors to induce the degradation of the dicarbonyl model substrate (PPD, 3). To this end, we screened the thiazolium (4-6), benzothiazolium (7), triazolium (8,9) and imidazolium (10) halide substructures shown in Table 1.

[2] = NHC-mediated cleavage of bis-alkyl diketone 14, Method B; format: biochemical; settings: LCMS, with respect to dicarbonyl
Method: as §2
(§3) Our efforts to investigate the scope of thiazolium salt-mediated reactions with dicarbonyls began with bis-alkyl diketone 14 (Table 3, Entry 1). This substrate is cleaved cleanly by 2, and affords acid 18 in 82% yield. NHC precursor 4, on the other hand, provides 18 in only 14% yield (Entry 2). The efficiency of dicarbonyl cleavage reactions decreases substantially in the case of benzil (15, Entry 3), which affords benzoic acid in 14% and 1% yield following exposure to 2 and 4, respectively.

[3] = NHC-mediated reaction with α-keto aldehyde phenylglyoxal (16), Method B; format: biochemical; settings: LCMS, phenylglyoxal alone gives 25% benzoic acid
Method: as §2
Phenylglyoxal hydrate (16; 114 mg, 0.75 mmol, 2 eq) was added to a solution of ALT-711 (2; 100 mg, 0.37 mmol) in 50% MeCN/0.15 M pH 7.4 phosphate buffer (total vol. 37 ml) and kept stirred at room temperature for 15 mins. The reaction mixture was cooled to −20° C. to precipitate out sodium phosphate as white crystals. The supernatant was transferred, and the residue was washed with MeCN and combined with the supernatant. This yellow clear solution was concentrated at room temperature to remove MeCN and purified by HPLC (16-27MeCN over 31 min). […]
Reactions involving α-keto aldehyde derivatives 16 and 17 followed an unexpected course. Treatment of these substrates with 2 led to instantaneous, high-yield production of a diastercomeric mixture of cycloadducts (19 and 20) that decompose to complex mixtures under the reaction conditions with half-lives of approximately 3 h Structures were determined based on in-depth NMR analysis (see Supplementary Material).

[4] = NHC-mediated cleavage of benzil (15), Method B; format: biochemical; settings: LCMS, with respect to dicarbonyl
Method: as §2, §3

[5] = Cleavage of PPD by NHC precursors, Method A (alcoholic co-solvent); format: biochemical; settings: for Combined % Yield (PhCO2H, PhCO2Me): co-solvent MeOH
Method: as §1
PPD (21 μl, 156 μmol) was added to a murky solution of NHC (2 or 4, 71 μmol) in 50% MeOH/0.5 M pH 7.4 sodium phosphate buffer (3.5 ml/3.5 ml; final conc. 10 mM NHC, 22 mM PPD) and kept stirred at 37° C. Approximately 0.5 ml aliquots were taken at stated times and analyzed by HPLC. Experiments using EtOH or iPrOH as a co-solvent were done in the same manner. Concentrations of benzoic acid and benzoate esters were determined by peak integration against the calibration curves.
Having learned that ALT-711 performed best among NHCs evaluated for PPD cleavage, we sought to test its substrate scope versus its N-benzyl counterpart (4). We therefore measured product distribution and yield while varying the co-solvent used to solubilize dicarbonyl substrates. As summarized in Table 2, we first investigated the performance of alcoholic co-solvents in PPD cleavage reactions. […] Despite this, however, the product distributions differed substantially: ALT-711 (2) predominantly afforded benzoic acid (PhCO2H:PhCO2Me=3.2:1, Entry 2), whereas 4 mostly gave rise to methyl benzoate (PhCO2H:PhCO2Me=1:2.2, Entry 4). Further replacement of the co-solvent with EtOH and i-PrOH in 4-catalyzed reactions led to a decrease in the proportion of ester production, still without altering overall yield (Entries 5 and 6).

mouse RBC = experiment: Storage of leukoreduced mouse blood in CPDA-1 at 4° C.: hemolysis and intact RBC count; format: cell-based; settings: CPDA-1 buffer
Method: FIG. 1 illustrates OCR6043-mediated prolonging of the integrity of stored RBCs. Leuko reduced mouse blood was stored under FDA-approved storage conditions (CPDA-1 buffer at 4° C.) for up to 13 days, in either OCR6043, control compound (structurally similar to OCR6043, but nonfunctional as a AGE crosslink breaker), or without any additive.
This solution was stored at 4° C. according to FDA-approved conditions for 13 days. […] The steps to collect HOD blood from mice and the addition of the FDA-approved storage buffer CPDA are described in Hendrickson et al., Transfusion of fresh murine red blood cells reverses adverse effects of older stored red blood cells, Transfusion (2011) Vol. 12, pp. 2695-2702.
We also counted the intact RBCs using a hemocytometer after 13 days of storage as also depicted in FIG. 1.

[6] = physiological conditions; cited from earlier work
[7] = system: HOD alloantigen on stored RBCs; experiment: Immunogenicity of stored blood upon transfusion (anti-HOD IgG ELISA); format: in vivo, mouse; settings: blood stored 14 days, transfused into B6 mice, 14 days following transfusion
Method: Leuko-reduced mouse blood was stored under typical storage conditions for up to 14 days, in either OCR6043, control compound, or without any treatment. FIG. 2A illustrates an analysis of glucose in the serum from the stored blood was evaluated using a glucose oxidase enzymatic assay. […] FIG. 2B illustrates the AGE precursor levels on RBCs were measured using a dicarbonyl-specific fluorophore that was developed in-house. The time dependent increase in the AGE precursor levels was dampened in the presence of OCR6043. FIG. 2C illustrates mouse blood that was stored for 14 days, was evaluated for its immunogenicity upon transfusion, by testing for IgGs against an alloantigen on the RBCs (HOD=HEL-OVA-Duffy).
OCR6043 treatment decreases immunogenicity, and enhances post-transfusion recovery of stored mouse blood. Leukoreduced mouse blood was stored under typical storage conditions for up to 14 days in either OCR6043 or without any treatment. This mouse blood was evaluated for its immunogenicity upon transfusion by testing for IgGs against an alloantigen on the RBCs (HOD=HEL-OVA-Duffy).
As described herein, the stored blood has an HOD marker allowing facile detection after transfusion. We transfused […] of stored blood into B6 mice (not expressing the HOD antigen). […] The anti-HOD IgG response was evaluated using standard ELISA techniques described in Hendrickson et at.

| SMILES | Yield (%) of benzoic acid from cleavage of 3 ([1]; Method B) | Benzoic acid formation from 3 (in words) [1] | further results |
| --- | --- | --- | --- |
| Cc1sc[n+](Cc2ccccc2)c1C | 20% |  |  |
| [Cl-].c1ccc(C[n+]2csc3ccccc32)cc1 [drawing 12] | 0^b % |  |  |
| Cc1sc[n+](CC(=O)c2ccccc2)c1C.[Cl-] [drawing 8] | 60% |  |  |
| Cc1c(CCO)sc[n+]1Cc1ccccc1.[Cl-] [Compound 5] |  | substantially lower yields |  |
| Cn1c[n+](CC(=O)c2ccccc2)cn1.[Cl-] [Compound 9] |  | restores the reactivity to a small extent |  |
| Cc1sc[n+](Cc2ccccc2)c1C.[Cl-] [Compound 4, 3-benzyl-4,5-dimethylthiazol-3-ium chloride] |  | substantially lower yields | % Yield of acid 18 from substrate 14 [2]: 14%; Combined % Yield (PhCO2H) ([1]; co-solvent MeCN, Method B, LCMS, with respect to dicarbonyl): 20%; % Yield of PhCO2H from substrate 16 [3]: 30^c %; % Yield of PhCO2H from substrate 15 (benzil) [4]: 1%; Combined % Yield (PhCO2H, PhCO2Et) ([5]; co-solvent EtOH): 60%; Combined % Yield (PhCO2H, PhCO2Me) [5]: 62%; Combined % Yield (PhCO2H, PhCO2iPr) ([5]; co-solvent i-PrOH): 58% |
| Cc1c(CCO)sc[n+]1Cc1ccccc1.[Cl-] [drawing 10] | 14% |  |  |
| Cn1c[n+](CC(=O)c2ccccc2)cn1.[Cl-] [MPTC, 1-methyl-4-phenacyl-triazolium chloride] |  |  | Hemolysis of stored blood (supernatant appearance) (mouse RBC; up to 13 days, 12 mM): hemolysis |
| Cn1c[n+](CC(=O)c2ccccc2)cn1.[Cl-] [drawing 14] | 12% |  |  |
| Cn1cc[n+](CC(=O)c2ccccc2)c1.[Cl-] [drawing 15] | 0^b % |  |  |
| [Cl-].c1ccc(C[n+]2csc3ccccc32)cc1 [Compound 7] |  | no observable levels of benzoic acid |  |
| O=C(C[n+]1ccsc1)c1ccccc1.[Br-] [Compound 1, N-phenacylthiazolium bromide] |  |  | Half-life of decomposition [6]: 44 min; Combined % Yield (PhCO2H, PhCO2Me) [5]: 39%; Immunogenicity upon transfusion (IgG against HOD alloantigen) [7]: lower immunogenicity; RBC viability / intact RBCs (hemocytometer) (mouse RBC; 13 days): higher levels of intact RBCs |
| Cn1c[n+](Cc2ccccc2)cn1.[Cl-] [drawing 13] | 0^b % |  |  |
| Cn1c[n+](Cc2ccccc2)cn1.[Cl-] [Compound 8] |  | no observable levels of benzoic acid |  |
| Cn1cc[n+](CC(=O)c2ccccc2)c1.[Cl-] [Compound 10] |  | did not produce any benzoic acid |  |
